The values below come from paper PMC6856805, “Environmental Risk Assessment for the Active Pharmaceutical Ingredient Mycophenolic Acid in European Surface Waters” (Environmental Toxicology and Chemistry, 2019).

In brackets after ≈: the same amount, converted by molar mass. Read-outs that look alike come from different tables or passages of the source.

The nature of data set [1]: Photodegradation in buffered aqueous solutions under natural sunlight. The data set is classed as physicochemical. On the procedure: In contrast, Franquet‐Griell et al. (2017a) reported MPA k photo values of 0.0284 min^–1 for UV‐C irradiation and 0.004 min^–1 in a Solar Box artificial sunlight reactor. […] Giebułtowicz and Nałęcz‐Jawecki (2016) presented a UV‐visual light spectrum of MPA in their Supporting Information with a λmax at 215 nm and 2 sequentially lower peaks at 248 and 297 nm, confirming UV‐C photosensitivity.
The photodegradation of MPA in buffered aqueous solutions at pH 5, 7 and 9 under natural sunlight was determined by Syntex, 'closely following the US FDA guideline' (Nicholson 1994)). MPA was used in solutions of 3.12×10^–5 M (= 10 mg/L); the pH 5 solution was buffered with 0.1 M sodium acetate, the pH 7 solution with 0.1 M monobasic sodium phosphate and the pH 9 solution with 0.1 M sodium borate buffer. As actinometers (reference photodegradants) p-nitroanisole at 1.00×10^–5 M was used, with 4.96×10^–3 M pyridine for pH 5, with 6.20×10^–3 M pyridine for pH 7 and with 9.93×10^–3 M pyridine for pH 9. In each of the seasonal studies, hermetically closed quartz tubes with either one of the MPA solutions or the corresponding actinometer solutions were exposed to natural sunlight in triplicate. Single control tubes containing either MPA solution or actinometer solution, both at different pHs, were wrapped in aluminium foil and covered in black plastic and exposed in parallel. The tubes were set up in Palo Alto, Ca, USA at 37° 25' N, in parallel on a board painted black, which was exposed on a stand pointing due […] at an angle of 30°. Data for the four seasonal experiments, with date, time of initiation and end, sampling intervals, weather, cloud cover and temperature, are given in the report. At each of several equivalent timepoints, one set of tubes was removed from sunlight, analysed by HPLC and compared with the respective dark control. The substance loss of p-nitroanisole, with known quantum yield, in the […] served to calibrate the loss of MPA in the test tubes and determine the photolytic rate constants kphoto and half-lives for MPA at different pH levels and insolations over the seasons.

In another data set the test system is Cyprinus carpio. The arrangement: method as in FASS 2018. As to conditions: OECD 203; ref FASS 2018; cited from earlier work.
The subject of the next data set is Anabaena flos-aquae. Nature of the data set: microbe, parasite or virus in culture. The settings on record: 72 h. The data set is classed as cell-based. From the text:
The new chronic ecotoxicity tests with cyanobacteria (D. Gilberg and G. Chambers, ECT Oekotoxikologie, Flörsheim, Germany, on behalf of F.Hoffmann‐La Roche, Basle, Switzerland, unpublished data), daphnids (P. Egeler and J. Chambers, ECT Oekotoxikologie, Flörsheim, Germany, on behalf of F.Hoffmann‐La Roche, Basle, Switzerland, unpublished data), and fish (D. Gilberg and G. Chambers, unpublished data) fulfilled the validity criteria of the respective OECD guidelines (see the Supplemental Data). […] The following endpoints were determined, all relating to GMMC: NOEC (both growth and yield) 83.9 µg MPA/L, LOEC 284 µg/L, ErC10 155 (95% confidence interval [CI] 137–171) µg/L, and ErC50 423 (95% CI 406–441) µg/L (D. Gilberg and G. Chambers, unpublished data).
An OECD 201 algal growth inhibition test was performed by ECT Oekotoxikologie, Flörsheim, Germany, with the cyanobacterian Anabaena flos-aquae with a series of concentrations of MPA in cyanobacteria test medium in different concentrations plus medium-only controls under continuous lighting over 72 h (Gilberg & Chambers 2017). The growth of the algae was measured by calibrated fluorescence intensity of sonicated test solution samples using a fluorometer after 24, 48 and 72 hours. The test concentrations were analysed by HPLC at the start and end of the test.

Data set [2] can be described thus: Antibiotic resistance risk quotient (PEC or MEC / PNECABR). On the procedure:
Antibiotic resistance risk is assessed through comparing PECs or MECs with a PNEC for formation or maintenance of antibiotic resistance (PNECABR). There is no universally accepted or regulatory algorithm for deriving a reliable PNECABR for bacteria, so for the time being this is approximated by applying assessment factors to bacterial minimal inhibitory concentrations (MICs). […] To be fully consistent with Bengtsson‐Palme and Larsson's (2016) approach to PNECABR derivation, the authors were contacted for help; they (J. Bengtsson‐Palme, Department of Infectious Diseases, Institute of Biomedicine, The Sahlgrenska Academy, University of Gothenberg, Gothenberg, Sweden, personal communication) state that “we only use species with 10 or more MIC observations, to avoid drawing conclusions from insufficient data […] . The only species with >10 observations in the Noto et al. (1969) paper is S[taphylococcus] aureus. In addition, when the MIC1% are selected, only one MIC [J.O.Straub's italics] value is selected per species (the lowest). Finally, the uncertainty factor for low sampling numbers is calculated as: (observed lowest MIC) × (number of tested species) ÷ 41.” Both these provisional PNECABR values were derived from the MPA MICs; the lower was selected and compared with the PECs and MECs.
This provisional PNECABR of 64 µg MPA/L can now be compared with the PECs for STPs and surface water and with the highest MECs available. […] For surface waters, all PECs including the highest, the Guadalquivir River low‐flow 99th %ile ePiE PEC, were below the PNECABR, and thus all risk quotients were ≤0.194, all refined PEC‐per‐country risk quotients were ≤0.0083, and all mean‐ and low‐flow median ePiE PEC risk quotients were ≤0.00033; finally, the highest MEC risk quotient was 0.0103. Both models and measurements imply that throughout Europe, even in the worst‐case scenario of a southern Mediterranean catchment with extremely low river flow in summer, no significant antibiotic resistance risk emerges for MPA.

Data set [3] in a line: n-octanol/water distribution coefficient (log DOW), shake-flask method. The data set is classed as physicochemical. The text has this: Syntex derived many basic physicochemical properties for both MPM and MPA in the early 1990s. The results for MPA are mostly given in the present study.

Take `COc1c(C)c2c(c(O)c1CC=C(C)CCC(=O)O)C(=O)OC2` [MPA, 6‐(1,3‐dihydro‐4‐hydroxy‐6‐methoxy‐7‐methyl‐3‐oxo‐5‐isobenzofuranyl)‐4‐methyl‐4‐hexenoic acid]: the k photo in data set [1] (pH 5, summer) turned out to be 0.0059 min^–1; in data set [1] (pH 5, winter), 0.0017 min^–1; in data set [1] (pH 7, summer) it was 0.018 min^–1; in data set [1] (pH 7, winter) it was 0.0049 min^–1; in data set [1] (pH 9, summer), 0.031 min^–1; in data set [1] (pH 9, winter), 0.0087 min^–1. Besides, the “acute fish 50% lethal concentration (LC50)” value with Cyprinus carpio is greater than 100 mg/L. Further, the ErC10 with Anabaena flos-aquae (Anabaena flos-aquae) is listed as 155 µg/L. In addition, in the data set on Anabaena flos-aquae (Anabaena flos-aquae), the LOEC is reported as 284 µg/L. The “NOEC (both growth and yield)” value in the data set with Anabaena flos-aquae (Anabaena flos-aquae) was 83.9 µg MPA/L. The EC50 in the data set on Anabaena flos-aquae (Dolichospermum flos-aquae, GMMC, read-out: ErC50) came out at 0.423 µg/mL (≈ 1.32 µM). Moreover, the “antibiotic resistance risk quotient, highest MEC” value in data set [2] is 0.0103. In addition, the “antibiotic resistance risk quotients, all mean‐ and low‐flow median ePiE PEC” value in data set [2] is no more than 0.00033. The “antibiotic resistance risk quotients, all refined PEC‐per‐country” value in data set [2] is recorded as no more than 0.0083. In addition, the results for the “antibiotic resistance risk quotient, STPs” value in data set [2] (highest STP effluent MEC 4.19 µg/L) and in data set [2] (highest refined PECSTP 8.83 µg MPA/L) were 0.065 and 0.138, respectively. Also, the “antibiotic resistance risk quotients, surface waters, all PECs” value in data set [2] (including Guadalquivir low‐flow 99th %ile ePiE PEC) was no more than 0.194. For the same compound, the logD in data set [3] (pH 5, pH 5, read-out: Log D OW) is 2.28; in data set [3] (pH 5, pH 5 to 9, read-out: log D OW values), no more than 2.28; in data set [3] (pH 7, pH 7, read-out: Log D OW), 0.48; in data set [3] (pH 9, pH 9, read-out: Log D OW) it was no more than -1.54.
